What all share (format): in vivo
In data set [1] the test system is cats. Briefly: amphetamine-like stereotyped reactions in cats (amphetamine-like CNS stimulant activity). Conditions: for amphetamine-like stereotyped reactions: cats, comparative tests at similar dosage levels.
Data set [2] relates to rats. The data set can be described thus: teratogenicity in rats. Particulars: similar dosage levels.
Data set [3] has as its system rabbits. The data set can be described thus: teratogenicity in rabbits. Conditions: similar dosage levels.
The subject of data set [4] is reserpine-induced hypothermia. The data set can be described thus: reversal of reserpine-induced hypothermia test in mice (antireserpine activity). Particulars: Mus musculus, Shadbolt et al., read-out: ED50 (median effective dose). Here is the method:
A test to evaluate this property was carried out with the compounds of formula I (R = H or CH3 O). The test was carried out in mice as described by Shadbolt et al. in J. Med. Chem. vol. 14 p.837 (1971), and the following results were obtained.

Consider `CCN(CC)CCOc1ccc(Nc2nc3ccccc3s2)cc1` [2-[4-(2-diethylaminoethoxy)anilino]benzothiazole], for which the “amphetamine-like CNS stimulant activity” value in data set [1] (as shown by stereotyped reactions in cats) is on record as “undesirably high level of amphetamine-like CNS stimulant activity”. In data set [1], the amphetamine-like stereotyped reactions entry was “produces amphetaminelike stereotyped reactions”.
With `c1ccc2sc(Nc3ccc(OCCN4CCCCC4)cc3)nc2c1` [2-[4-(2-piperidin-1-ylethoxy)anilino]benzothiazole], in data set [1], the amphetamine-like stereotyped reactions result is “causes amphetamine-like stereotyped reactions”.
For the compound `c1ccc2oc(Nc3ccc(OCCN4CCCC4)cc3)nc2c1` [2-[4-(2-pyrrolidin-1-ylethoxy)anilino]benzoxazole], the teratogenicity entry in data set [2] and in data set [3] was “markedly teratogenic” throughout.
With `c1ccc2sc(Nc3ccc(OCCN4CCCC4)cc3)nc2c1` [compound I, R=hydrogen, 2-[4-(2-pyrrolidin-1-ylethoxy)anilino]benzothiazole], the teratogenicity result in data set [2] is “no evidence of teratogenicity”. The ED50 in data set [4] came to 3.7 mg/kg.
Turning to `COc1ccc2sc(Nc3ccc(OCCN4CCCC4)cc3)nc2c1` [compound I, R=methoxy, 5-methoxy-2-[4-(2-pyrrolidin-1-ylethoxy)anilino]benzothiazole], the teratogenicity entry in data set [2] and in data set [3] was “no evidence of teratogenicity” throughout. The ED50 in data set [4] came out at 3.1 mg/kg.

The ED50 is the dose at which the effect has come halfway, by size or by number of responders.

These data come from US3957999A, “Anilinobenzothiazoles as antidepressants” (The Boots Company, priority 1974, dated 1976).
